Experimental data: US20260224532A1, “ESTROGEN RECEPTOR BETA LIGANDS FOR THE PREVENTION AND TREATMENT OF MULTIPLE SCLEROSIS (MS) AND OTHER DEMYELINATING, INFLAMMATORY AND NEURODEGENERATIVE DISEASES” (The Board of Trustees of the University of Illinois, priority 2023, published 2026)

Key:
[1] = molecular target: T1, purified, full length human ERβ (Homo sapiens, UniProt Q92731); assay: Relative binding affinity (RBA) radiometric competitive binding assay, ERβ; settings: for β/α (ERβ/ERα selectivity): ratio of RBA ERβ to RBA ERα; for RBA ERβ: relative binding affinity, E2 (estradiol) is 100%, tritiated estradiol tracer; for selectivity of binding to ERβ vs ERα: text statement of the β/α ratio; for binding affinity for ERβ (in words): compared with the other 7-substituted indazoles
T1 construct: purified, full length human ERα and ERβ
T1 sequence (Q92731 whole entry): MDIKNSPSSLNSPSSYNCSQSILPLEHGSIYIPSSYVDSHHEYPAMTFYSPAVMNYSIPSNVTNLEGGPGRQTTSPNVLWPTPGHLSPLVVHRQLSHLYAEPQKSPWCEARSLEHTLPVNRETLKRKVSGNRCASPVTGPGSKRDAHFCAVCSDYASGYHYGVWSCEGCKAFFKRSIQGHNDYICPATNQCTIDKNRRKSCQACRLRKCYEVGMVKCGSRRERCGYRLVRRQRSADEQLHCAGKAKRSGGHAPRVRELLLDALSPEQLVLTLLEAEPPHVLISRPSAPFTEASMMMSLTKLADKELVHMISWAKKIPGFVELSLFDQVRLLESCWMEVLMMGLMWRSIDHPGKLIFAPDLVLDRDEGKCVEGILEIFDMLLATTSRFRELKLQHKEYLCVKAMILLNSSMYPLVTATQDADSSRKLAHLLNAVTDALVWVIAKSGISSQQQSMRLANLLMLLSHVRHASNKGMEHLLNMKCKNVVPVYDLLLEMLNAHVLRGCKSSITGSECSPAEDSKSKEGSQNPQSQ

[2] = molecular target: T2, purified, full length human ERα (Homo sapiens, UniProt P03372); assay: Relative binding affinity (RBA) radiometric competitive binding assay, ERα; settings: for RBA ERα: relative binding affinity, E2 (estradiol) is 100%, tritiated estradiol tracer; for binding affinity for ERα (in words): compared with the other 7-substituted indazoles
T2 construct: purified, full length human ERα and ERβ
T2 sequence (P03372 1-595): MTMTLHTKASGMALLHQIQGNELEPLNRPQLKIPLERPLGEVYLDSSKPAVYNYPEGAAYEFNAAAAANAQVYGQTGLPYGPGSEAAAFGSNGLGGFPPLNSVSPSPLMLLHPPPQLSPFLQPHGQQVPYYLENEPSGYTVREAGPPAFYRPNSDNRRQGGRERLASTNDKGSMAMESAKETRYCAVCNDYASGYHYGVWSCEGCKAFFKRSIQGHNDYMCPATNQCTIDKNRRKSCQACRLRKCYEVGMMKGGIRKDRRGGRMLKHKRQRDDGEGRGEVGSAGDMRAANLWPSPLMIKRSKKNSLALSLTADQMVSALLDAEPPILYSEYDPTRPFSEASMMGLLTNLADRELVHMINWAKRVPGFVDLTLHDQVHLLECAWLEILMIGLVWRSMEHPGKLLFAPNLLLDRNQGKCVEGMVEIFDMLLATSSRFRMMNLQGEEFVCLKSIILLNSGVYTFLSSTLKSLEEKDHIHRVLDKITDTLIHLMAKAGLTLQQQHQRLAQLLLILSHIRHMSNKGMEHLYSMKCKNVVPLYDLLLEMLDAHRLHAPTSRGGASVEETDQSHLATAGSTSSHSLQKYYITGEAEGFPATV

[3] = tested on: Cuprizone-Induced Demyelinated Mouse Model; assay: Myelin recovery in the cuprizone-induced demyelinated mouse model (MOG IHC, Corpus Callosum); type: in vivo, C57BL/6 female mice; settings: SC 5 mg/kg, 1.5-weeks treatment after 6 weeks cuprizone
Experimental: The Cuprizone assay of demyelination-remyelination was conducted by the methods described previously (Moore et al. 2013; Crawford et al, 2009a,b). A group of animals was on normal diet (N groups). The remainder of the mice were divided into groups of 5 and all of these groups of mice were fed cuprizone diet at (0.2% cuprizone mixed in chow). After 6 weeks on cuprizone diet-induced demyelination, a group of 5 mice were perfused (DM group). The other groups of mice were switched to normal diet for 1.5 weeks to initiate remyelination and were treated with either (i) Vehicle (SC+V) or (ii) test compound at a dose of 5 mg/kg. […] After 1.5 weeks of normal diet-induced remyelination, the mice were perfused. Brains were collected, cryoprotected, embedded, cut, and IHC for myelin oligodendrocyte glycoproteins (MOG) was performed. Cuprizone study results after 1.5-weeks treatment with the designated 7-substituted compounds via SC administration following 6 weeks cuprizone treatment of (C57BL/6) female mice are shown in FIG. 5. The height of each bar graph represents level of myelination assessed by the expression of MOG in the white matter tracks of the Corpus Callosum area quantified by immunohistochemical analysis (IHC) after staining with a MOG antibody. N: Normal diet, DM: Demyelinated status after 6 weeks cuprizone treatment, SC-Veh: Spontaneous remyelination after injection with matrix in saline solution only (without compound; recovery is only about 40%). (Mice: ~2 months age, SC: Subcutaneous injection, n=5). Cuprizone study results for the 3-weeks treatment with the 6-substituted compound 17 via SC administration following the 6 weeks of 0.2% cuprizone treatment of C57BL/6 female mice are shown in FIG. 6. The height of each bar graph represents level of myelination assessed by the expression of MOG in the white matter tracks of the Corpus Callosum area quantified by immunohistochemical analysis (IHC) after staining with a MOG antibody. N: Normal diet, DM: Demyelinated status after 6 weeks cuprizone treatment, SC-Veh: Spontaneous remyelination after injection with matrix in saline solution only (without compound; recovery is only about 40%). (Mice: ~2 months age, SC: Subcutaneous injection, n=5~6). […] (Mice: ~2 months age, s.c.: Subcutaneous administration, n=5).

Primary OPCs = assay: Primary OPC culture: MBP+ OL differentiation and total cell count (DAPI); type: cell-based, mouse; settings: for number of MBP+ OLs with increased percentage of branched OLs, compared to vehicle-treated cells / total number of cells (DAPI): 10 nM
Experimental: Primary OPC Cultures: Primary OPCs, isolated from postnatal day P1 C57BL/6 male and female mouse cortices as described previously, are treated with 10 nM ligands in differentiating medium for […] (Tiwari-Woodruff et al., 2001; Tiwari-Woodruff et al., 2006). Primary OPC are cultured into 8-well chamber slides (three wells per condition, 2.5×10^5 cells/well) for three days to attach and five days in differentiating media (consisting of DMEM-F12 with triiodothyronine- and thyroxine-containing Sato as well as penicillin, streptomycin, insulin, N-acetyl-L-cysteine, forskolin, ciliary neurotrophic factor, neurotrophin-3, and platelet-derived growth factor […] (Tiwari-Woodruff et al., 2001)). A positive control (IndC1), a negative control (Vehicle consisting of the media+EtOH mixture used to dissolve IndCl), and a normal control (differentiating media alone) are used for comparison. At the end of the treatment period, cells are fixed, stained by immunocytochemistry (primary antibody polyclonal chicken myelin basic protein (MBP, Millipore AB9348), and co-stained with nuclear stain-DAPI), and imaged with an Olympus BX61 confocal microscope (Olympus America Inc., Center Valley, PA) at 10× magnification (3 images per well). Cells are counted using the ImageJ multipoint tool, and counts are then divided by the image area (mm^2). Average cell density for each condition is then divided by the normal condition cell density. Analysis of OL differentiation consists of counting the number of MBP+ cells and process extensions that are longer than the respective cell-body diameter and tracking the number of highly branched MBP+ cells (with three or more processes) (Monnerie et al., 2017). Statistics are performed using GraphPad Prism 6 Software (La Jolla, CA). One-way ANOVA with Tukey's posthoc test for multiple comparisons is used to generate p-values, and data are presented as mean±SEM (with α≤0.05).
FIG. 1A-1D show the effects of treatment with the 7-substituted indazole compounds on the expression of myelin basic protein in OLs (MBP^+-OLs, top two panels) as an indication of murine oligodendrocyte precursor cell (OPC) differentiation, as well as the count of the total cells as an indication of cell proliferation/survival (DAPI nucleus stain, bottom two panels). The cells were treated with the listed compounds at 10 nM (FIG. 1A, 1B) and at 1 nM (FIG. 1C, 1D).

Compound | β/α (ERβ/ERα selectivity) [1] | RBA ERβ [1] [%] | RBA ERα [2] [%] | selectivity of binding to ERβ vs ERα [1] [fold] | binding affinity for ERβ (in words) [1] | binding affinity for ERα (in words) [2] | remyelination (MOG expression in Corpus Callosum) [3] | number of MBP+ OLs with increased percentage of branched OLs, compared to vehicle-treated cells (Primary OPCs) | total number of cells (DAPI) (Primary OPCs) | MBP expression / number of MBP+ OLs, compared to vehicle-treated cells (Primary OPCs; 1 nM)
Cc1cc(O)ccc1-n1nc2cc(Cl)c(O)cc2c1Cl [Compound 20, 3,6-dichloro-2-(4-hydroxy-2-methylphenyl)-2H-indazol-5-ol] | 2.63 | 0.187 | 0.071 |  |  |  |  |  |  | 
Cc1cc(O)cc2cn(-c3ccc(O)cc3)nc12 [Compound 10, 7-methyl-2-(4-hydroxyphenyl)-2H-indazol-5-ol] | 144 | 2.59 | 0.018 | 144 |  |  |  |  |  | 
Oc1ccc(-n2cc3cc(O)cc(Cl)c3n2)c(F)c1 [Compound 15, 7-chloro-2-(2-fluoro-4-hydroxyphenyl)-2H-indazol-5-ol] | 185 | 9.63 | 0.052 | 185 |  |  |  |  |  | 
Oc1ccc(-n2cc3cc(O)cc(Cl)c3n2)cc1 [Compound 6, 7-chloro-2-(4-hydroxyphenyl)-2H-indazol-5-ol] | 200 | 19.6 ± 6.1 | 0.098 | 200 |  |  |  |  |  | 
Oc1cc(Cl)c2nn(-c3ccc(O)c(F)c3)cc2c1 [Compound 13, 7-Chloro-2-(3-fluoro-4-hydroxyphenyl)-2H-indazol-5-ol] | 469 | 10.76 | 0.023 | 469 |  |  |  |  |  | 
Cc1cc(O)cc2c(Cl)n(-c3ccc(O)cc3)nc12 [Compound 11, 3-Chloro-7-methyl-2-(4-hydroxyphenyl)-2H-indazol-5-ol] | 17 | 45.9 | 2.76 |  |  |  |  |  |  | 
Oc1ccc(-n2nc3c(Br)cc(O)cc3c2F)cc1 [Compound 2, 7-bromo-3-fluoro-2-(4-hydroxyphenyl)-2H-indazol-5-ol] | 70.1 |  | 2.27 |  |  |  |  |  | reduction | 
Oc1ccc(-n2nc3c(Br)cc(O)cc3c2Br)cc1 [Compound 4, 3,7-dibromo-2-(4-hydroxyphenyl)-2H-indazol-5-ol] | 7 |  | 21.29 |  |  |  |  |  |  | 
Cc1cc(O)ccc1-n1nc2cc(F)c(O)cc2c1Cl [Compound 18, 3-Chloro-6-fluoro-2-(4-hydroxy-2-methylphenyl)-2H-indazol-5-ol] | 4.64 | 2.53 | 0.545 |  |  |  |  | significant increase |  | significant increase
Oc1ccc(-n2nc3c(O)cc(O)cc3c2Cl)cc1 [Compound 21, 3-chloro-2-(4-hydroxyphenyl)-2H-indazole-5,7-diol] | 51 | 0.051 | 0.001 |  | lower binding affinity | lower binding affinity |  |  |  | 
Oc1ccc(-n2nc3c(F)cc(O)cc3c2Cl)cc1 [Compound 9, 3-Chloro-7-fluoro-2-(4-hydroxyphenyl)-2H-indazol-5-ol] | 37 | 82.3 | 2.2 |  |  |  |  |  |  | 
Oc1ccc(-n2nc3cc(Cl)c(O)cc3c2Cl)cc1 [Compound 19, 3,6-dichloro-2-(4-hydroxyphenyl)-2H-indazol-5-ol] | 15.49 | 0.852 | 0.055 |  |  |  |  |  |  | 

Second part, led by results:

β/α (ERβ/ERα selectivity) [1] | RBA ERβ [1] [%] | RBA ERα [2] [%] | selectivity of binding to ERβ vs ERα [1] [fold] | binding affinity for ERβ (in words) [1] | binding affinity for ERα (in words) [2] | Compound | remyelination (MOG expression in Corpus Callosum) [3] | number of MBP+ OLs with increased percentage of branched OLs, compared to vehicle-treated cells (Primary OPCs) | total number of cells (DAPI) (Primary OPCs) | MBP expression / number of MBP+ OLs, compared to vehicle-treated cells (Primary OPCs; 1 nM)
38.3 | 32.96 | 0.86 |  |  |  | Oc1cc(Cl)c2nn(-c3ccc(O)c(F)c3)c(Cl)c2c1 [Compound 14, 3,7-dichloro-2-(3-fluoro-4-hydroxyphenyl)-2H-indazol-5-ol] | somewhat less remyelination | significant increase |  | 
131 | 32.01 ± 0.09 | 0.244 | 131 |  |  | Oc1ccc(-n2cc3cc(O)cc(Br)c3n2)cc1 [Compound 1, 7-bromo-2-(4-hydroxyphenyl)-2H-indazol-5-ol] |  | significant increase |  | 
246 | 39.4 | 0.16 | 246 |  |  | Oc1cccc(-n2nc3c(Br)cc(O)cc3c2Cl)c1 [Compound 12, 7-Bromo-3-chloro-2-(3-hydroxyphenyl)-2H-indazol-5-ol] | does not accelerate remyelination |  |  | 
6.74 | 31.76 | 4.71 |  |  |  | Oc1ccc(-n2nc3c(Cl)cc(O)cc3c2Cl)c(F)c1 [Compound 16, 3,7-dichloro-2-(2-fluoro-4-hydroxyphenyl)-2H-indazol-5-ol] |  |  |  | 
18 |  | 15.57 |  |  |  | Oc1ccc(-n2nc3c(Br)cc(O)cc3c2Cl)cc1 [Compound 3, 7-bromo-3-chloro-2-(4-hydroxyphenyl)-2H-indazol-5-ol] |  |  | reduction | 
12 | 0.006 | 0.0005 |  | lower binding affinity | lower binding affinity | Cc1cc(O)ccc1-n1nc2c(O)cc(O)cc2c1Cl [Compound 22, 3-chloro-2-(4-hydroxy-2-methylphenyl)-2H-indazole-5,7-diol] |  |  |  | 
87 | 22.4 | 0.258 |  |  |  | Oc1ccc(-n2cc3cc(O)cc(F)c3n2)cc1 [Compound 8, 7-fluoro-2-(4-hydroxyphenyl)-2H-indazol-5-ol] |  |  |  | 
